Data taken from paper PMC7026418, “The kinase polypharmacology landscape of clinical PARP inhibitors” (Scientific Reports, 2020).
Like-named read-outs stand apart in the source and are kept apart here. Blank lines part the entries; values can stand above or below the compound they belong to.

How the values were obtained:
Test in all cases: biochemical
Design in all cases: DiscoveRx KINOMEscan active site-directed competition binding; percent of control kinase bound to immobilised ligand
SGK = biological target: T1, SGK (Homo sapiens, UniProt O00141)
T1 construct: gene SGK1
T1 sequence (O00141 1-431): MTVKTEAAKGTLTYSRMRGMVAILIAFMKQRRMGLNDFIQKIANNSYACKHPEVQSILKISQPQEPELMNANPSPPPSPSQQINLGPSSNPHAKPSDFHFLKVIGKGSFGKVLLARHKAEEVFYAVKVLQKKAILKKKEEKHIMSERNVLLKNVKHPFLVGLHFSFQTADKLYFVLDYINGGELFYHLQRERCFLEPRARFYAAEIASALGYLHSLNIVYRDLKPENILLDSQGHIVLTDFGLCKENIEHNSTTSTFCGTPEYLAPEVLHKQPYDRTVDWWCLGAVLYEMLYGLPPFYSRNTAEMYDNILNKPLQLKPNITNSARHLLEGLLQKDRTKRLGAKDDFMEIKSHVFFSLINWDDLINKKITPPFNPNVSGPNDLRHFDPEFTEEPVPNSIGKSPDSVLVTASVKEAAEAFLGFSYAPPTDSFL

KIT(L576P) = KIT(L576P) (Homo sapiens, UniProt P10721, L576P)
Chain of KIT(L576P) (P10721 whole entry L576P): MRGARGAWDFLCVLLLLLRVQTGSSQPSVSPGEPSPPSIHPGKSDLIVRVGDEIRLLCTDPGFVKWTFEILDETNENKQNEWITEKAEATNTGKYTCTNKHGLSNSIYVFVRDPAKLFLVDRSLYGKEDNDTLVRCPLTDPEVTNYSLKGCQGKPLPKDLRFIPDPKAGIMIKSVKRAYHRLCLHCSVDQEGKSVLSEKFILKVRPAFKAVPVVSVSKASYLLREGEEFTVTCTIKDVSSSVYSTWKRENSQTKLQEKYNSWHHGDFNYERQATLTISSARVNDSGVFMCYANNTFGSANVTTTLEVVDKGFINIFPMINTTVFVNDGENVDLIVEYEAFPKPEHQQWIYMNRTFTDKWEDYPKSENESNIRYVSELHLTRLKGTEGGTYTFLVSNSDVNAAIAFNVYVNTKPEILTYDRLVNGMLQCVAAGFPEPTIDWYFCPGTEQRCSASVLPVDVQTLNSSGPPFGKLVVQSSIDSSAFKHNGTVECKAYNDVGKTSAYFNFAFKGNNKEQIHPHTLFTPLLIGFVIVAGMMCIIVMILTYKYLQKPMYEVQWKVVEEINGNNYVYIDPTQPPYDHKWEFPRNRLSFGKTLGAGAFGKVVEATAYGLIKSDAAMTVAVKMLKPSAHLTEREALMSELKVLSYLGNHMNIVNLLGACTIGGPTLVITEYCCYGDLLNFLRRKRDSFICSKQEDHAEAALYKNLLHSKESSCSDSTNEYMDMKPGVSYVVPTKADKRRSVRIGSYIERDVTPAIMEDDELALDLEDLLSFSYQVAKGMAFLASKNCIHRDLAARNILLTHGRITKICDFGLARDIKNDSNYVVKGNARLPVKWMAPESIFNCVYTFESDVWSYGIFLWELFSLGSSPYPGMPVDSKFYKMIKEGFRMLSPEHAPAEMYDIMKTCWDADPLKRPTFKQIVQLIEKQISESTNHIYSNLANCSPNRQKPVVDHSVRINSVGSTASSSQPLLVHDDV

SRPK3 = SRPK3 (Homo sapiens, UniProt Q9UPE1)
Chain of SRPK3 (Q9UPE1 whole entry): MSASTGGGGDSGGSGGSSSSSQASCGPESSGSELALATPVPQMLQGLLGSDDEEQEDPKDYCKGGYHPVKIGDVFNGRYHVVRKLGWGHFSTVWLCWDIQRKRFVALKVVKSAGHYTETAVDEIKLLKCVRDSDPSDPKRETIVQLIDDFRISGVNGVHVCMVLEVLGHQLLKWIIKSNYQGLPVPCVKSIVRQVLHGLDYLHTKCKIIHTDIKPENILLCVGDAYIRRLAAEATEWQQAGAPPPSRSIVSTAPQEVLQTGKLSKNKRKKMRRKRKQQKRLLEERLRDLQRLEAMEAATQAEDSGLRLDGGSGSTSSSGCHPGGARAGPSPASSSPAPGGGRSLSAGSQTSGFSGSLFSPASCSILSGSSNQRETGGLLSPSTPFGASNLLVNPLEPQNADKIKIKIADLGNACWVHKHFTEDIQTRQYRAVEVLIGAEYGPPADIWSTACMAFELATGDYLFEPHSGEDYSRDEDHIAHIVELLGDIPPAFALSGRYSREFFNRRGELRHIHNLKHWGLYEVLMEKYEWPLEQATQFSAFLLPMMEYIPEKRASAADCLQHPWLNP

CDK3 = CDK3 (Homo sapiens, UniProt Q00526)
Chain of CDK3 (Q00526 whole entry): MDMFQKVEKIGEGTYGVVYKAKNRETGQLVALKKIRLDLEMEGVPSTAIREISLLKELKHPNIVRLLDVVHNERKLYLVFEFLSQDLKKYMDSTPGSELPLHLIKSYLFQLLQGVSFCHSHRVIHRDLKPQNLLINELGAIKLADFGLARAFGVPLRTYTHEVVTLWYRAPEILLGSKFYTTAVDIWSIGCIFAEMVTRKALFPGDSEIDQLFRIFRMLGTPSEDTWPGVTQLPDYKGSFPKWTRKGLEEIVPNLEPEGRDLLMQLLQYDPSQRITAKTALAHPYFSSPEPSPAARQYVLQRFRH

IKK-beta = biological target: T2, IKK-beta (Homo sapiens, UniProt O14920)
T2 construct: gene IKBKB
T2 sequence (O14920 1-756): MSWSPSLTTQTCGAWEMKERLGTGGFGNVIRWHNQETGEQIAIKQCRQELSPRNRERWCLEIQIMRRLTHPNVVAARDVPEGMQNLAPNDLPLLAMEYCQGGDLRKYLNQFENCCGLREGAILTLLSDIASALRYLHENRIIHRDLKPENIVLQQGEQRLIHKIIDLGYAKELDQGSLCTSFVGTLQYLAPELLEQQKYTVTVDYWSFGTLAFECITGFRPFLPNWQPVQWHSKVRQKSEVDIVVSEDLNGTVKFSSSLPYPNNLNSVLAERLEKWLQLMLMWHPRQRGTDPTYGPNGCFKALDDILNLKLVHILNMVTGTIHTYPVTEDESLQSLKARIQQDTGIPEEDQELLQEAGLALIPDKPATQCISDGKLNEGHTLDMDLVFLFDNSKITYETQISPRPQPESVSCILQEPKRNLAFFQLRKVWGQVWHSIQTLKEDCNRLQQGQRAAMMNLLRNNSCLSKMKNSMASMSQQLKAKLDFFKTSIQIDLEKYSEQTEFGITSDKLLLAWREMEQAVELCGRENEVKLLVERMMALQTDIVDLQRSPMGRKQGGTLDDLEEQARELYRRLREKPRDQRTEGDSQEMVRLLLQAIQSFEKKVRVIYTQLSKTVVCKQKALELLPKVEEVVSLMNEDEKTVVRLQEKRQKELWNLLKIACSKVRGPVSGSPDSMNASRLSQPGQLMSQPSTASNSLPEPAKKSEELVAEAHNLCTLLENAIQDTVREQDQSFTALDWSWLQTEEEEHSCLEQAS

NIM1 = biological target: T3, NIM1 (Homo sapiens, UniProt Q8IY84)
T3 construct: gene NIM1K
T3 sequence (Q8IY84 whole entry): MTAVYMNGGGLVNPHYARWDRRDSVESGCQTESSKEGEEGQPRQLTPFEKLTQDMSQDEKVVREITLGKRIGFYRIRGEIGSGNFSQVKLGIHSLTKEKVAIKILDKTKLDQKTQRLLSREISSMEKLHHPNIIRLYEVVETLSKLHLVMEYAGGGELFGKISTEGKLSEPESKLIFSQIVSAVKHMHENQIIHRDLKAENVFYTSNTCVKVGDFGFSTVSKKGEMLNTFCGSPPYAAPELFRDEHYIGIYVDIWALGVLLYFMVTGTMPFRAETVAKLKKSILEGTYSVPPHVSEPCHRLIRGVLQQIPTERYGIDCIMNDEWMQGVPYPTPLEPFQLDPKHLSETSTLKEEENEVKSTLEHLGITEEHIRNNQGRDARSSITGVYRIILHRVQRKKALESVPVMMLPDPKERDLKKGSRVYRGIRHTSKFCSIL

[1] = biological target: T4, ABL1(T315I)-nonphosphorylated (Homo sapiens, UniProt P00519, T315I)
T4 construct: nonphosphorylated

TTK = biological target: T5, TTK (Homo sapiens, UniProt P33981)
T5 sequence (P33981 1-857): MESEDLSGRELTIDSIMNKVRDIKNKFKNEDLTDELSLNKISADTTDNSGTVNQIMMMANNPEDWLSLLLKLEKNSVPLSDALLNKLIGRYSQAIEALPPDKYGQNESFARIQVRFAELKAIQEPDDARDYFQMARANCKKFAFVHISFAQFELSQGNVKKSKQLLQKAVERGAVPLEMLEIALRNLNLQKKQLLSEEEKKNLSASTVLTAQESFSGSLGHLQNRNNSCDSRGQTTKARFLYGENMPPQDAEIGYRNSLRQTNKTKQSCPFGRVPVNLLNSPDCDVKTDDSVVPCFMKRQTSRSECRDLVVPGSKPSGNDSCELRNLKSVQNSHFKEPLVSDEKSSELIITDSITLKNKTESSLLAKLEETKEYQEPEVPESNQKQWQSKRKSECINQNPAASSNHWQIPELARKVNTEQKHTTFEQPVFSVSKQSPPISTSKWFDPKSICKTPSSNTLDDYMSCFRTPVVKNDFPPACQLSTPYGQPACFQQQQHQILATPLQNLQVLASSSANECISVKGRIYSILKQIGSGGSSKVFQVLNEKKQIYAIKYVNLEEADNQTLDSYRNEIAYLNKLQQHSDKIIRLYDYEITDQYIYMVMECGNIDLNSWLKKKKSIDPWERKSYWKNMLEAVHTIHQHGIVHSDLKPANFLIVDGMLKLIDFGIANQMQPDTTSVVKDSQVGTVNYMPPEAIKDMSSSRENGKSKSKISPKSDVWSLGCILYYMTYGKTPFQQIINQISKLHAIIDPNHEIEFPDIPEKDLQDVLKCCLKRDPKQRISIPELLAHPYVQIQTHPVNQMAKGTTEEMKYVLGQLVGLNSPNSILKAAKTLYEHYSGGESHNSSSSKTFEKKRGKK

[2] = read-out: Niraparib (MK-4827) / %Ctrl @ 10000nM
[3] = read-out: Rucaparib / %Ctrl @ 10000nM, binding competition, % of control
[4] = read-out: Olaparib / %Ctrl @ 10000nM
[5] = read-out: Talazoparib (BMN 673) / %Ctrl @ 10000nM

Structure (SMILES): NC(=O)c1cccc2cn(-c3ccc([C@@H]4CCCNC4)cc3)nc12 [Niraparib]
percent of control binding at 10 µM (SGK; [2]): 89%
percent of control binding at 10 µM (KIT(L576P); [2]): 80%
percent of control binding at 10 µM (SRPK3; [2]): 71%
percent of control binding at 10 µM (CDK3; [2]): 95%
percent of control binding at 10 µM (IKK-beta; [2]): 100%
percent of control binding at 10 µM (NIM1; [2]): 100%
percent of control binding at 10 µM [1, 2]: 90%
percent of control binding at 10 µM (TTK; [2]): 54%

percent of control binding at 10 µM (SGK; [3]): 61%
percent of control binding at 10 µM (KIT(L576P); [3]): 88%
percent of control binding at 10 µM (SRPK3; [3]): 85%
percent of control binding at 10 µM (CDK3; [3]): 94%
percent of control binding at 10 µM (IKK-beta; [3]): 35%
percent of control binding at 10 µM (NIM1; [3]): 71%
percent of control binding at 10 µM [1, 3]: 72%
percent of control binding at 10 µM (TTK; [3]): 20%
Structure (SMILES): CNCc1ccc(-c2[nH]c3cc(F)cc4c3c2CCNC4=O)cc1 [Rucaparib]

percent of control binding at 10 µM (SGK; [4]): 97%
percent of control binding at 10 µM (KIT(L576P); [4]): 100%
percent of control binding at 10 µM (SRPK3; [4]): 84%
percent of control binding at 10 µM (CDK3; [4]): 100%
percent of control binding at 10 µM (IKK-beta; [4]): 72%
percent of control binding at 10 µM (NIM1; [4]): 83%
percent of control binding at 10 µM [1, 4]: 79%
percent of control binding at 10 µM (TTK; [4]): 90%
Structure (SMILES): O=C(c1cc(Cc2n[nH]c(=O)c3ccccc23)ccc1F)N1CCN(C(=O)C2CC2)CC1 [Olaparib]

percent of control binding at 10 µM (SGK; [5]): 92%
percent of control binding at 10 µM (KIT(L576P); [5]): 100%
percent of control binding at 10 µM (SRPK3; [5]): 100%
percent of control binding at 10 µM (CDK3; [5]): 100%
percent of control binding at 10 µM (IKK-beta; [5]): 95%
percent of control binding at 10 µM (NIM1; [5]): 79%
percent of control binding at 10 µM [1, 5]: 75%
percent of control binding at 10 µM (TTK; [5]): 99%
Structure (SMILES): Cn1ncnc1[C@H]1c2n[nH]c(=O)c3cc(F)cc(c23)N[C@@H]1c1ccc(F)cc1 [Talazoparib]
